Measurements as given in patent US20250228239A1, “MOLECULES HAVING PESTICIDAL UTILITY, AND INTERMEDIATES, COMPOSITIONS, AND PROCESSES, RELATED THERETO” (priority 2024, published 2025).
Where two headings read alike, the source gives them in different places.

Legend:
Type in all cases: in vivo
[1] = test system: Beet Armyworm (Spodoptera exigua, LAPHEG); experiment: Bioassays on Beet Armyworm (BAW), 128-well diet tray assay; conditions: Spodoptera exigua, read-out: BAW
Summary of the method: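 Second-instar larvae, one to five per well, were placed on artificial diet surface-treated with 50 μg/cm^2 compound in 90:10 acetone-water, eight wells per treatment. Trays were held 5–7 days at 25 °C, 14:10 light-dark. Percent mortality per well was averaged over eight wells.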

[2] = test system: Yellow Fever Mosquito (Aedes aegypti, AEDSAE)
Summary of the method: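 Larvae ~1 day old, in liver powder/water; compound from 4000 ppm DMSO stock diluted with water/acetone (90:10); 6 reps; lidded, RT, 3 d; mortality scored per well, rated.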

[3] = test system: Cabbage Looper (Trichoplusia ni, TRIPNI); experiment: Bioassays on Cabbage Looper (CL), 128-well diet tray assay; conditions: Trichoplusia ni, read-out: CL
Summary of the method: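 Each of eight wells receives artificial diet treated at 50 μg/cm^2 with the test molecule, then one to five second-instar larvae. Incubation runs five to seven days at 25° C with a 14:10 light-dark cycle under vented covers. Mortality is scored per well as a percentage and averaged.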

[4] = Table ABC: Biological Results, species BAW
[5] = Table ABC: Biological Results, species YFM
[6] = Table ABC: Biological Results, species CL
[7] = Yellow Fever Mosquito, rating class

| Structure (SMILES) | pest or weed control at 50 µg/cm2 [1, 4] | YFM [2, 5] | pest or weed control at 50 µg/cm2 [3, 6] | pest or weed control at 50 µg/cm2 ([1]; Beet Armyworm, rating class) | YFM [2, 7] | pest or weed control at 50 µg/cm2 ([3]; Cabbage Looper, rating class) |
| --- | --- | --- | --- | --- | --- | --- |
| O=C(Nc1ccc(F)c(NC(=O)C(Br)Br)c1F)c1cc(NC(=O)[C@H]2[C@H](c3ccc(F)c(C(F)(F)F)c3)C2(Cl)Cl)ccc1Cl [F1355, 2-Chloro-N-(3-(2,2-dibromoacetamido)-2,4-difluorophenyl)-5-((1R,3R)-2,2-dichloro-3-(4-fluoro-3-(trifluoromethyl)phenyl)cyclopropane-1-carboxamido)benzamide] | 50 to 100% | A (80–100) | 50 to 100% |  |  |  |
| CCC(F)(F)C(=O)Nc1c(F)ccc(NC(=O)c2cc(NC(=O)[C@H]3[C@H](c4ccc(F)c(C(F)(F)F)c4)C3(Cl)Cl)ccc2Cl)c1F [F1357, 2-Chloro-5-((1R,3R)-2,2-dichloro-3-(4-fluoro-3-(trifluoromethyl)phenyl)cyclopropane-1-carboxamido)-N-(3-(2,2-difluorobutanamido)-2,4-difluorophenyl)benzamide] | 50 to 100% | A (80–100) | 50 to 100% |  |  |  |
| CC1(C(=O)Nc2c(F)ccc(NC(=O)c3cc(NC(=O)[C@H]4[C@H](c5ccc(F)c(C(F)(F)F)c5)C4(Cl)Cl)ccc3Cl)c2F)CC1 [F1362, 2-Chloro-5-((1R,3R)-2,2-dichloro-3-(4-fluoro-3-(trifluoromethyl)phenyl)cyclopropane-1-carboxamido)-N-(2,4-difluoro-3-(1-methylcyclopropane-1-carboxamido)phenyl)benzamide] | 50 to 100% | A (80–100) | 50 to 100% |  |  |  |
| CCOCC(=O)Nc1c(F)ccc(NC(=O)c2cc(NC(=O)[C@H]3[C@H](c4ccc(F)c(C(F)(F)F)c4)C3(Cl)Cl)ccc2Cl)c1F [F1363, 2-Chloro-5-((1R,3R)-2,2-dichloro-3-(4-fluoro-3-(trifluoromethyl)phenyl)cyclopropane-1-carboxamido)-N-(3-(2-ethoxyacetamido)-2,4-difluorophenyl)benzamide] | 50 to 100% | A (80–100) | 50 to 100% |  |  |  |
| N#CCC(=O)Nc1c(F)ccc(NC(=O)c2cc(NC(=O)[C@H]3[C@H](c4ccc(F)c(C(F)(F)F)c4)C3(Cl)Cl)ccc2Cl)c1F [F1369, 2-Chloro-N-(3-(2-cyanoacetamido)-2,4-difluorophenyl)-5-((1R,3R)-2,2-dichloro-3-(4-fluoro-3-(trifluoromethyl)phenyl)cyclopropane-1-carboxamido)benzamide] | 50 to 100% | A (80–100) | 50 to 100% |  |  |  |
| CCCCC(=O)Nc1c(F)ccc(NC(=O)c2cc(NC(=O)[C@H]3[C@H](c4ccc(F)c(C(F)(F)F)c4)C3(Cl)Cl)ccc2Cl)c1F [F1372, 2-Chloro-5-((1R,3R)-2,2-dichloro-3-(4-fluoro-3-(trifluoromethyl)phenyl)cyclopropane-1-carboxamido)-N-(2,4-difluoro-3-pentanamidophenyl)benzamide] | 50 to 100% | A (80–100) | 50 to 100% |  |  |  |
| CCCC(=O)Nc1c(F)ccc(NC(=O)c2cc(NC(=O)[C@H]3[C@H](c4ccc(F)c(C(F)(F)F)c4)C3(Cl)Cl)ccc2Cl)c1F [F1385, N-(3-Butyramido-2,4-difluorophenyl)-2-chloro-5-((1R,3R)-2,2-dichloro-3-(4-fluoro-3-(trifluoromethyl)phenyl)cyclopropane-1-carboxamido)benzamide] | 50 to 100% | A (80–100) | 50 to 100% |  |  |  |
| Cc1c(N)ccc(NC(=O)c2cc(NC(=O)[C@H]3[C@H](c4ccc(F)c(C(F)(F)F)c4)C3(Cl)Cl)ccc2Cl)c1C [F1389, N-(4-Amino-2,3-dimethylphenyl)-2-chloro-5-((1R,3R)-2,2-dichloro-3-(4-fluoro-3-(trifluoromethyl)phenyl)cyclopropane-1-carboxamido)benzamide] | 50 to 100% | A (80–100) | 50 to 100% |  |  |  |
| Nc1ccc(F)c(NC(=O)c2cc(NC(=O)[C@H]3[C@H](c4ccc(F)c(C(F)(F)F)c4)C3(Cl)Cl)ccc2Cl)c1F [F1391, N-(3-Amino-2,6-difluorophenyl)-2-chloro-5-((1R,3R)-2,2-dichloro-3-(4-fluoro-3-(trifluoromethyl)phenyl)cyclopropane-1-carboxamido)benzamide] | 50 to 100% | A (80–100) | 50 to 100% |  |  |  |
| Cc1c(NC(=O)c2cc(NC(=O)[C@H]3[C@H](c4ccc(F)c(C(F)(F)F)c4)C3(Cl)Cl)ccc2Cl)ccc(NC(=O)C(F)(F)F)c1C [F1392, 2-Chloro-5-((1R,3R)-2,2-dichloro-3-(4-fluoro-3-(trifluoromethyl)phenyl)cyclopropane-1-carboxamido)-N-(2,3-dimethyl-4-(2,2,2-trifluoroacetamido)phenyl)benzamide] |  |  |  | 50 to 100% | A (80–100) | 50 to 100% |
| O=C(Nc1c(F)ccc(NC(=O)C(F)F)c1F)c1cc(NC(=O)[C@H]2[C@H](c3ccc(F)c(C(F)(F)F)c3)C2(Cl)Cl)ccc1Cl [F1394, 2-Chloro-5-((1R,3R)-2,2-dichloro-3-(4-fluoro-3-(trifluoromethyl)phenyl)cyclopropane-1-carboxamido)-N-(3-(2,2-difluoroacetamido)-2,6-difluorophenyl)benzamide] |  |  |  | 50 to 100% | A (80–100) | 50 to 100% |
| O=C(Nc1ccc(F)c(NC(=O)C(F)F)c1F)c1cc(NC(=O)[C@H]2[C@H](c3ccc(F)c(Br)c3)C2(Cl)Cl)ccc1Cl [F1410, 5-((1R,3R)-3-(3-Bromo-4-fluorophenyl)-2,2-dichlorocyclopropane-1-carboxamido)-2-chloro-N-(3-(2,2-difluoroacetamido)-2,4-difluorophenyl)benzamide] |  |  |  | 50 to 100% | A (80–100) | 50 to 100% |
| O=C(Nc1ccc(F)c(NC(=O)C(F)(F)C(F)F)c1F)c1cc(NC(=O)[C@H]2[C@H](c3ccc(Cl)c(Cl)c3)C2(Cl)Cl)ccc1Cl [F1414, 2-Chloro-5-((1R,3R)-2,2-dichloro-3-(3,4-dichlorophenyl)cyclopropane-1-carboxamido)-N-(2,4-difluoro-3-(2,2,3,3-tetrafluoropropanamido)phenyl)benzamide] |  |  |  | 50 to 100% | A (80–100) | 50 to 100% |
| N#CCC(=O)Nc1c(Cl)ccc(NC(=O)c2cc(NC(=O)[C@H]3[C@H](c4ccc(Cl)c(Cl)c4)C3(Cl)Cl)ccc2Cl)c1Cl [F1415, 2-Chloro-N-(2,4-dichloro-3-(2-cyanoacetamido)phenyl)-5-((1R,3R)-2,2-dichloro-3-(3,4-dichlorophenyl)cyclopropane-1-carboxamido)benzamide] |  |  |  | 50 to 100% | A (80–100) | 50 to 100% |
| O=C(Nc1c(F)ccc(NC(=O)c2cc(NC(=O)[C@H]3[C@H](c4ccc(Cl)c(Cl)c4)C3(Cl)Cl)ccc2Cl)c1F)c1ccco1 [F1416, N-(3-(2-Chloro-5-((1R,3R)-2,2-dichloro-3-(3,4-dichlorophenyl)cyclopropane-1-carboxamido)benzamido)-2,6-difluorophenyl)furan-2-carboxamide] |  |  |  | 50 to 100% | A (80–100) | 50 to 100% |
| O=C(CC1CC1)Nc1c(F)ccc(NC(=O)c2cc(NC(=O)[C@H]3[C@H](c4ccc(Cl)c(Cl)c4)C3(Cl)Cl)ccc2Cl)c1F [F1417, 2-Chloro-N-(3-(2-cyclopropylacetamido)-2,4-difluorophenyl)-5-((1R,3R)-2,2-dichloro-3-(3,4-dichlorophenyl)cyclopropane-1-carboxamido)benzamide] |  |  |  | 50 to 100% | A (80–100) | 50 to 100% |
| O=C(CC(F)(F)F)Nc1c(F)ccc(NC(=O)c2cc(NC(=O)[C@H]3[C@H](c4ccc(Cl)c(Cl)c4)C3(Cl)Cl)ccc2Cl)c1F [F1418, 2-Chloro-5-((1R,3R)-2,2-dichloro-3-(3,4-dichlorophenyl)cyclopropane-1-carboxamido)-N-(2,4-difluoro-3-(3,3,3-trifluoropropanamido)phenyl)benzamide] |  |  |  | 50 to 100% | A (80–100) | 50 to 100% |
| CCOCCC(=O)Nc1c(F)ccc(NC(=O)c2cc(NC(=O)[C@H]3[C@H](c4ccc(Cl)c(Cl)c4)C3(Cl)Cl)ccc2Cl)c1F [F1419, 2-Chloro-5-((1R,3R)-2,2-dichloro-3-(3,4-dichlorophenyl)cyclopropane-1-carboxamido)-N-(3-(3-ethoxypropanamido)-2,4-difluorophenyl)benzamide] |  |  |  | 50 to 100% | A (80–100) | 50 to 100% |
| O=C(Nc1ccc(F)c(NC(=O)C(F)F)c1F)c1cc(NC(=O)[C@H]2[C@H](c3cc(Cl)c(Cl)c(Cl)c3)C2(Cl)Cl)cc(F)c1F [F1437, 5-((1R,3R)-2,2-Dichloro-3-(3,4,5-trichlorophenyl)cyclopropane-1-carboxamido)-N-(3-(2,2-difluoroacetamido)-2,4-difluorophenyl)-2,3-difluorobenzamide] |  |  |  | 50 to 100% | A (80–100) | 50 to 100% |
